Converted amounts (≈) assume the structure as drawn. Read-outs that look alike come from different tables or passages of the source.
Tested on: S. aureus clinical isolates
Test: microbe, parasite or virus in culture
Type: cell-based
Details: Staphylococcus aureus, read-out: MIC

Work on `C[C@H]1COc2c(N3CCN(C)CC3)c(F)cc3c(=O)c(C(=O)O)cn1c23` [Levofloxacin] yielded an MIC (ATCC 29213 / MSSA, S. aureus ATCC 29213, MSSA / VSSA, test date 2018-10-25 (three repeat lines)) of 0.25 µg/mL (≈ 0.692 µM), an MIC (ATCC 29213 / MSSA, S. aureus ATCC 29213, MSSA / VSSA, test date 2018-11-07) of 0.25 µg/mL (≈ 0.692 µM) and an MIC (MRSA / NRS 3 / VISA, S. aureus IHMA 1308243, NRS3, MRSA / VISA) of 32 µg/mL (≈ 88.6 µM). It also gave an MIC (MRSA / NRS 4 / VISA, S. aureus IHMA 649380, NRS4, MRSA / VISA) of 16 µg/mL (≈ 44.3 µM), an MIC (MRSA / NRS 18 / VISA, S. aureus IHMA 649386, NRS18, MRSA / VISA) of 16 µg/mL (≈ 44.3 µM) and an MIC (MRSA / NRS 19 / VISA, S. aureus IHMA 649387, NRS19, MRSA / VISA) of 32 µg/mL (≈ 88.6 µM). It also gave an MIC (MRSA / NRS 21 / VISA, S. aureus IHMA 649388, NRS21, MRSA / VISA) of 8 µg/mL (≈ 22.1 µM), an MIC (MRSA / NRS 22 / USA600 / VISA, S. aureus IHMA 649389, NRS22, MRSA / VISA, USA600) of 16 µg/mL (≈ 44.3 µM) and an MIC (MRSA / NRS 23 / VISA, S. aureus IHMA 649390, NRS23, MRSA / VISA) of 16 µg/mL (≈ 44.3 µM). For the same compound, the MIC (MRSA / NRS 24 / VISA, S. aureus IHMA 649391, NRS24, MRSA / VISA) was 64 µg/mL (≈ 177 µM), the MIC (MRSA / NRS 26, S. aureus IHMA 649392, NRS26, MRSA / VSSA) was 8 µg/mL (≈ 22.1 µM) and the MIC (MRSA / NRS 27 / VISA, S. aureus IHMA 1308248, NRS27, MRSA / VISA) was 32 µg/mL (≈ 88.6 µM). The MIC (MRSA / NRS 29 / VISA, S. aureus IHMA 1308250, NRS29, MRSA / VISA) was 16 µg/mL (≈ 44.3 µM), the MIC (MRSA / NRS 37 / VISA, S. aureus IHMA 1308251, NRS37, MRSA / VISA) was 32 µg/mL (≈ 88.6 µM) and the MIC (MRSA / NRS 54, S. aureus IHMA 1308253, NRS54, MRSA / VSSA* (*Expected VAN intermediate, confirmed VAN susceptible twice), test date 2018-11-07) was 8 µg/mL (≈ 22.1 µM). The MIC (MRSA / NRS 56 / VISA, S. aureus IHMA 1308254, NRS56, MRSA / VISA) was 8 µg/mL (≈ 22.1 µM), the MIC (MRSA / USA100 / VRSA, S. aureus IHMA 672230, VRS1, MRSA / VRSA, USA100) was 32 µg/mL (≈ 88.6 µM) and the MIC (MRSA / USA100 / VRSA, S. aureus IHMA 672231, VRS2, MRSA / VRSA, USA100) was 32 µg/mL (≈ 88.6 µM). For the same compound, the MIC (MRSA / USA100 / VRSA, S. aureus IHMA 672234, VRS4, MRSA / VRSA, USA100) was > 64 µg/mL, the MIC (MRSA / USA100 / VRSA, S. aureus IHMA 672235, VRS5, MRSA / VRSA, USA100) was 64 µg/mL (≈ 177 µM) and the MIC (MRSA / USA100 / VRSA, S. aureus IHMA 672237, VRS7, MRSA / VRSA, USA100) was 64 µg/mL (≈ 177 µM). For the same compound, the MIC (MRSA / USA100 / VRSA, S. aureus IHMA 672238, VRS8, MRSA / VRSA, USA100) was 16 µg/mL (≈ 44.3 µM), the MIC (MRSA / USA100 / VRSA, S. aureus IHMA 672239, VRS9, MRSA / VRSA, USA100) was 64 µg/mL (≈ 177 µM) and the MIC (MRSA / USA100 / VRSA, S. aureus IHMA 1308256, VRS10, MRSA / VRSA, USA100) was > 64 µg/mL. For the same compound, the MIC (MRSA / USA100 / VRSA, S. aureus IHMA 1308258, VRS11b, MRSA / VRSA, USA100) was > 64 µg/mL, the MIC (MRSA / USA800 / VRSA, S. aureus IHMA 672233, VRS3b, MRSA / VRSA, USA800) was 16 µg/mL (≈ 44.3 µM) and the MIC (MRSA, S. aureus IHMA 1569509, MRSA / VSSA) was 4 µg/mL (≈ 11.1 µM). The MIC (MRSA, S. aureus IHMA 1575268, MRSA / VSSA) was 32 µg/mL (≈ 88.6 µM), the MIC (MRSA, S. aureus IHMA 1575629, MRSA / VSSA) was 8 µg/mL (≈ 22.1 µM) and the MIC (MRSA, S. aureus IHMA 1577820, MRSA / VSSA) was > 64 µg/mL. For the same compound, the MIC (MRSA, S. aureus IHMA 1580300, MRSA / VSSA) was 16 µg/mL (≈ 44.3 µM), the MIC (MRSA, S. aureus IHMA 1580940, MRSA / VSSA) was 0.5 µg/mL (≈ 1.38 µM) and the MIC (MRSA, S. aureus IHMA 1582100, MRSA / VSSA) was 32 µg/mL (≈ 88.6 µM). For the same compound, the MIC (MRSA, S. aureus IHMA 1583795, MRSA / VSSA) was 32 µg/mL (≈ 88.6 µM), the MIC (MRSA, S. aureus IHMA 1584223, MRSA / VSSA) was 8 µg/mL (≈ 22.1 µM) and the MIC (MRSA, S. aureus IHMA 1585316, MRSA / VSSA) was 32 µg/mL (≈ 88.6 µM). It also gave an MIC (MRSA, S. aureus IHMA 1586780, MRSA / VSSA) of 16 µg/mL (≈ 44.3 µM), an MIC (MRSA, S. aureus IHMA 1587322, MRSA / VSSA) of 0.25 µg/mL (≈ 0.692 µM) and an MIC (MRSA, S. aureus IHMA 1588127, MRSA / VSSA) of 16 µg/mL (≈ 44.3 µM). For the same compound, the MIC (MRSA, S. aureus IHMA 1591462, MRSA / VSSA) was 32 µg/mL (≈ 88.6 µM), the MIC (MRSA, S. aureus IHMA 1592755, MRSA / VSSA) was 16 µg/mL (≈ 44.3 µM) and the MIC (MRSA, S. aureus IHMA 1592776, MRSA / VSSA) was 0.25 µg/mL (≈ 0.692 µM). The MIC (MRSA, S. aureus IHMA 1597106, MRSA / VSSA) was 16 µg/mL (≈ 44.3 µM), the MIC (MRSA, S. aureus IHMA 1602095, MRSA / VSSA) was 0.25 µg/mL (≈ 0.692 µM) and the MIC (MRSA, S. aureus IHMA 1611170, MRSA / VSSA) was 0.25 µg/mL (≈ 0.692 µM). The MIC (MRSA, S. aureus IHMA 1611612, MRSA / VSSA) was 32 µg/mL (≈ 88.6 µM), the MIC (MRSA, S. aureus IHMA 1612228, MRSA / VSSA) was 8 µg/mL (≈ 22.1 µM) and the MIC (MRSA, S. aureus IHMA 1620441, MRSA / VSSA) was 32 µg/mL (≈ 88.6 µM).

Source: publication PMC7561186, “Rational design of balanced dual-targeting antibiotics with limited resistance” (PLoS Biology, 2020)
